Results: patent US10533010B2, “Substituted indole Mcl-1 inhibitors” (Vanderbilt University, priority 2014, dated 2020)

Biological target: recombinant Mcl-1 (residues 172-327) (Homo sapiens (Human), UniProt Q07820)
Experiment: Fluorescence polarization anisotropy competition assay (FITC-Bak or FITC-Bim BH3 peptide) with Mcl-1
Assay type: binding
Details: Table 2; Ki bins given in nM; FITC-Bak or FITC-Bim peptide competition; Ki converted from IC50; read-out: Ki for Inhibition of Mcl-1

Sequence of recombinant Mcl-1 (residues 172-327) (Q07820 172-327): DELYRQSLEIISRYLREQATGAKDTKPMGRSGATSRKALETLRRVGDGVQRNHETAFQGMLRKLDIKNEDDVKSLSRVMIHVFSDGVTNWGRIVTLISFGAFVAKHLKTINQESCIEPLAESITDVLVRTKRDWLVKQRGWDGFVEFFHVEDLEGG

| Structure (SMILES) | Ki |
| --- | --- |
| COC(=O)c1cccc(CNC(=O)c2[nH]c3c(-c4c(C)n[nH]c4C)cccc3c2CCCOc2cc(C)c(Cl)c(C)c2)c1 [I-25, methyl 3-((3-(3-(4-chloro-3,5-dimethylphenoxy)propyl)-7-(3,5-dimethyl-1H-pyrazol-4-yl)-1H-indole-2-carboxamido)methyl)benzoate] | 301 to 500 nM |
| Cc1cc(OCCCc2c3n(c4c(-c5c(C)nn(C)c5C)c(Cl)ccc24)[C@@H](C)CN(c2cc(C(=O)O)cc4c2ccn4C)C3=O)cc(C)c1Cl [I-167, (S)-4-(7-chloro-10-(3-(4-chloro-3,5-dimethylphenoxy)propyl)-4-methyl-1-oxo-6-(1,3,5-trimethyl-1H-pyrazol-4-yl)-3,4-dihydropyrazino[1,2-a]indol-2(1H)-yl)-1-methyl-1H-indole-6-carboxylic acid] | < 50 nM |
| Cc1cc(OCCCc2c3n(c4c(-c5c(C)nn(C)c5C)c(Cl)ccc24)[C@H](C)CN(c2cccc(C(=O)O)c2)C3=O)cc(C)c1Cl [I-171, (R)-3-(7-chloro-10-(3-(4-chloro-3,5-dimethylphenoxy)propyl)-4-methyl-1-oxo-6-(1,3,5-trimethyl-1H-pyrazol-4-yl)-3,4-dihydropyrazino[1,2-a]indol-2(1H)-yl)benzoic acid] | < 50 nM |
| Cc1cc(OCCCc2c3n(c4c(-c5c(C)nn(C)c5C)c(Cl)ccc24)CCCN(c2cccc(C#N)c2)C3=O)cc(C)c1Cl [I-353, 3-(8-chloro-11-(3-(4-chloro-3,5-dimethylphenoxy)propyl)-1-oxo-7-(1,3,5-trimethyl-1H-pyrazol-4-yl)-4,5-dihydro-1H-[1,4]diazepino[1,2-a]indol-2(3H)-yl)benzonitrile] | 51 to 100 nM |
| Cc1cc(OCCCc2c(C(=O)Nc3ccc(C#N)cc3)[nH]c3c(-c4c(C)nn(C)c4C)c(Cl)ccc23)cc(C)c1Cl [I-355, 6-chloro-3-(3-(4-chloro-3,5-dimethylphenoxy)propyl)-N-(4-cyanophenyl)-7-(1,3,5-trimethyl-1H-pyrazol-4-yl)-1H-indole-2-carboxamide] | 51 to 100 nM |
| Cc1cc(OCCCc2c(C(=O)N(C)Cc3ccc(C(=O)O)o3)n(C)c3c(-c4c(C)nn(C)c4C)cccc23)cc(C)c1Cl [I-269, 5-((3-(3-(4-chloro-3,5-dimethylphenoxy)propyl)-N,1-dimethyl-7-(1,3,5-trimethyl-1H-pyrazol-4-yl)-1H-indole-2-carboxamido)methyl)furan-2-carboxylic acid] | 101 to 299 nM |
| Cc1cc(OCCCc2c(C(=O)NCCC(=O)NS(=O)(=O)C3CC3)[nH]c3ccccc23)cc(C)c1Cl [I-13, 3-(3-(4-chloro-3,5-dimethylphenoxy)propyl)-N-(3-(cyclopropanesulfonamido)-3-oxopropyl)-1H-indole-2-carboxamide] | 301 to 500 nM |
| Cc1cc(OCCCc2c(C(=O)N3CCN(c4ccc(C(=O)O)cn4)CC3)[nH]c3c(-c4c(C)nn(C)c4C)c(Cl)ccc23)cc(C)c1Cl [I-344, 6-(4-(6-chloro-3-(3-(4-chloro-3,5-dimethylphenoxy)propyl)-7-(1,3,5-trimethyl-1H-pyrazol-4-yl)-1H-indole-2-carbonyl)piperazin-1-yl)nicotinic acid] | < 50 nM |
| Cc1cc(OCCCc2c3n(c4c(-c5c(C)nn(C)c5C)c(Cl)ccc24)C[C@H](C)N(Cc2cccc(C(=O)O)c2)C3=O)cc(C)c1Cl [I-136, (S)-3-((7-chloro-10-(3-(4-chloro-3,5-dimethylphenoxy)propyl)-3-methyl-1-oxo-6-(1,3,5-trimethyl-1H-pyrazol-4-yl)-3,4-dihydropyrazino[1,2-a]indol-2(1H)-yl)methyl)benzoic acid] | < 50 nM |
| Cc1cc(OCCCc2c3n(c4c(-c5c(C)nn(C)c5C)cc(Cl)cc24)CCCN(c2cccc(C(=O)O)c2)C3=O)cc(C)c1Cl [I-246, 3-(9-chloro-11-(3-(4-chloro-3,5-dimethylphenoxy)propyl)-1-oxo-7-(1,3,5-trimethyl-1H-pyrazol-4-yl)-4,5-dihydro-1H-[1,4]diazepino[1,2-a]indol-2(3H)-yl)benzoic acid] | 101 to 299 nM |
| Cc1cc(OCCCc2c3n(c4c(-c5c(C)nn(C)c5C)c(Cl)ccc24)[C@@H](C)CN(Cc2ccc(C(=O)O)o2)C3=O)cc(C)c1Cl [I-148, (S)-5-((7-chloro-10-(3-(4-chloro-3,5-dimethylphenoxy)propyl)-4-methyl-1-oxo-6-(1,3,5-trimethyl-1H-pyrazol-4-yl)-3,4-dihydropyrazino[1,2-a]indol-2(1H)-yl)methyl)furan-2-carboxylic acid] | < 50 nM |
| Cc1cc(OCCCc2c(C(=O)NCCS(=O)(=O)NC(=O)Cc3ccc(Br)cc3)[nH]c3ccccc23)cc(C)c1Cl [I-53, N-(2-(N-(2-(4-bromophenyl)acetyl)sulfamoyl)ethyl)-3-(3-(4-chloro-3,5-dimethylphenoxy)propyl)-1H-indole-2-carboxamide] | 301 to 500 nM |
| Cc1cc(OCCCc2c(C(=O)NCCC(=O)NS(=O)(=O)c3ccc([N+](=O)[O-])cc3)[nH]c3ccccc23)cc(C)c1Cl [I-22, 3-(3-(4-chloro-3,5-dimethylphenoxy)propyl)-N-(3-((4-nitrophenyl)sulfonamido)-3-oxopropyl)-1H-indole-2-carboxamide] | 101 to 299 nM |
| Cc1cc(OCCCc2c(C(=O)NC3CCN(C(=O)c4cccc(Oc5ccccc5)c4)CC3)[nH]c3ccccc23)cc(C)c1Cl [I-67, 3-(3-(4-chloro-3,5-dimethylphenoxy)propyl)-N-(1-(3-phenoxybenzoyl)piperidin-4-yl)-1H-indole-2-carboxamide] | 501 to 999 nM |
| Cc1cc(OCCCc2c(C(=O)Nc3cccc(C(=O)O)c3)[nH]c3c(-c4cccnc4C)cccc23)cc(C)c1Cl [I-36, 3-(3-(3-(4-chloro-3,5-dimethylphenoxy)propyl)-7-(2-methylpyridin-3-yl)-1H-indole-2-carboxamido)benzoic acid] | < 50 nM |
| Cc1cc(OCCCc2c(C(=O)N[C@H]3CCCC[C@H]3C(=O)O)[nH]c3c(-c4c(C)nn(C)c4C)cccc23)cc(C)c1Cl [I-316, (1R,2S)-2-(3-(3-(4-chloro-3,5-dimethylphenoxy)propyl)-7-(1,3,5-trimethyl-1H-pyrazol-4-yl)-1H-indole-2-carboxamido)cyclohexane-1-carboxylic acid] | < 50 nM |
| Cc1cc(OCCCc2c(C(=O)NCc3cccc(C(=O)O)c3)[nH]c3c(-c4c(CN5CCCC5)nn(C)c4C)cccc23)cc(C)c1Cl [I-34, 3-((3-(3-(4-chloro-3,5-dimethylphenoxy)propyl)-7-(1,5-dimethyl-3-(pyrrolidin-1-ylmethyl)-1H-pyrazol-4-yl)-1H-indole-2-carboxamido)methyl)benzoic acid] | < 50 nM |
| Cc1cc(OCCCc2c3n(c4c(-c5c(C)nn(C)c5C)c(Cl)ccc24)[C@@H](C)CN(c2ccc(C(=O)O)c4ncccc24)C3=O)cc(C)c1Cl [I-168, (S)-5-(7-chloro-10-(3-(4-chloro-3,5-dimethylphenoxy)propyl)-4-methyl-1-oxo-6-(1,3,5-trimethyl-1H-pyrazol-4-yl)-3,4-dihydropyrazino[1,2-a]indol-2(1H)-yl)quinoline-8-carboxylic acid] | < 50 nM |

Same assay, conditions: Table 2; Ki bins given in μM; FITC-Bak or FITC-Bim peptide competition; Ki converted from IC50; read-out: Ki for Inhibition of Mcl-1

| Structure (SMILES) | Ki |
| --- | --- |
| COC(=O)[C@H](CC(C)C)NC(=O)CNC(=O)c1[nH]c2c(-c3c(C)nn(C)c3C)cccc2c1CCCOc1cc(C)c(Cl)c(C)c1 [I-289, methyl (3-(3-(4-chloro-3,5-dimethylphenoxy)propyl)-7-(1,3,5-trimethyl-1H-pyrazol-4-yl)-1H-indole-2-carbonyl)glycyl-L-leucinate] | 10000 to 50000 nM |
